# Source: PubChem BioAssay (NCI)
# Where “and” joins values, the source holds several entries; their conditions need not be identical. Equal values may be shown once.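 Cultured in 96-well plates, cells were exposed to test compound for 48 hours across five concentrations. Here, GI50 denotes the concentration required for 50% inhibition of growth. TGI is the concentration that stops growth completely.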
# How the values were obtained:
# Test in all cases: DTP human tumour cell line panel, 48 h
# M19-MEL melanoma = test system: M19-MEL melanoma
# NCI-H226 lung = test system: NCI-H226 lung
# RPMI-8226 leukemia = test system: RPMI-8226 leukemia
# SNB-75 CNS = test system: SNB-75 CNS
# XF 498 CNS = test system: XF 498 CNS
# BT-549 breast = test system: BT-549 breast
# HS 578T breast = test system: HS 578T breast
# MDA-MB-435 = test system: MDA-MB-435
# NCI/ADR-RES ovarian = test system: NCI/ADR-RES ovarian
# T-47D breast = test system: T-47D breast
Structure (SMILES),TGI (M19-MEL melanoma) [µM],TGI (NCI-H226 lung),TGI (RPMI-8226 leukemia),TGI (SNB-75 CNS),TGI (XF 498 CNS) [µM],GI50 (BT-549 breast),TGI (BT-549 breast),GI50 (HS 578T breast),TGI (HS 578T breast),GI50 (MDA-MB-435),TGI (MDA-MB-435),GI50 (NCI-H226 lung),GI50 (NCI/ADR-RES ovarian),TGI (NCI/ADR-RES ovarian),GI50 (RPMI-8226 leukemia),GI50 (SNB-75 CNS),GI50 (T-47D breast),TGI (T-47D breast)
O=C(N/N=C1/C(=O)N(c2ccc(Cl)cc2Cl)C(=O)C(=O)C1c1nc2ccccc2o1)c1ccccc1O (centres undefined),> 100,> 100 µM,> 100 µM,> 100 µM,75.2,–,–,–,–,–,–,–,–,–,–,–,–,–
O=C(NC(=O)c1cn(CCNCCO)c(=O)[nH]c1=O)OCc1ccccc1,> 100,> 100 µM,> 100 µM,> 100 µM,–,–,–,–,–,–,–,–,–,–,–,–,–,–
CCC1C2C=CC(CC2)N1S(=O)(=O)c1ccc(C)cc1 (centres undefined),> 100,33.9 µM,42.3 µM,–,–,–,–,–,–,–,–,–,–,–,–,–,–,–
Cc1ccc(S(=O)(=O)N/N=C/c2oc(-c3ccncc3)c(-c3ccncc3)c2[N+](=O)[O-])cc1,> 100,> 100 µM,–,> 100 µM,> 100,–,–,–,–,–,–,–,–,–,–,–,–,–
O=C(O)CSc1n[nH]c(-c2ccccc2)n1,> 100,> 100 µM,> 100 µM,> 100 µM,> 100,–,–,–,–,–,–,–,–,–,–,–,–,–
c1ccc(SC2CCSc3ccccc3C2Sc2ccccc2)cc1 (centres undefined),–,> 100 µM,> 100 µM,> 100 µM,> 100,–,–,–,–,–,–,–,–,–,–,–,–,–
O=c1n(-c2ccccc2)c(=O)n2n1C1C=CC2C2C(C1)C2(Cl)Cl (centres undefined),> 100,> 100 µM,–,> 100 µM,> 100,–,–,–,–,–,–,–,–,–,–,–,–,–
N=c1ccn2c(n1)OC1C(O)C(CO)OC12 (centres undefined),> 1000,> 719 µM,> 1000 µM,> 1000 µM,> 1000,> 100 µM,> 1000 µM,> 100 µM,> 1000 µM,2.59 µM,> 1000 µM,120 µM and > 79 µM,0.659 µM,> 753 µM,3.97 µM,> 100 µM,16.8 µM,> 1000 µM
CCOc1ccc2c(c1)[n+]([O-])c(-c1ccccc1Cl)c(N)[n+]2[O-],> 100,> 100 µM,–,> 100 µM,> 100,–,–,–,–,–,–,–,–,–,–,–,–,–
O=C1c2ccccc2C2(O)c3cc4ccccc4cc3OC12O (centres undefined),> 100,> 100 µM,> 100 µM,> 100 µM,–,–,–,–,–,–,–,–,–,–,–,–,–,–
CC1=C2CCCC2=C/C(=N/Nc2ccc([N+](=O)[O-])cc2[N+](=O)[O-])CC1,> 100,> 100 µM,> 100 µM,> 100 µM,> 100,–,–,–,–,–,–,–,–,–,–,–,–,–
CC(=O)n1c2c(c(=O)n1-c1ccccc1)S(=O)CCC2 (centres undefined),> 100,> 100 µM,27.9 µM,> 100 µM,> 100,–,–,–,–,–,–,–,–,–,–,–,–,–
COc1ccc(/C(=N\NC(=O)C(N)=O)C(c2ccc(OC)cc2)C2(O)C(=O)Nc3c(Cl)cccc32)cc1 (centres undefined),> 100,> 100 µM,> 100 µM,> 100 µM,> 100,–,–,–,–,–,–,–,–,–,–,–,–,–
O=C(CSc1nnc(-c2ccc(N=Cc3ccc(Cl)cc3)cc2)o1)Nc1ccc(Cl)cc1,> 100,> 100 µM,> 100 µM,> 100 µM,> 100,–,–,–,–,–,–,–,–,–,–,–,–,–
COc1ccc(-c2cc(-c3ccccc3)c(C#N)c(=O)n2C2OC(CO)C(O)C(O)C2O)cc1 (centres undefined),> 100,> 100 µM,> 100 µM,–,–,–,–,–,–,–,–,–,–,–,–,–,–,–
CCOC(=O)C1(c2ccccc2)CCC(=O)CC1,> 100,> 100 µM,–,> 100 µM,–,–,–,–,–,–,–,–,–,–,–,–,–,–
CC(=O)O[C@H]1CCC2[C@@H]3CCC4=C(O)c5nocc5C[C@]4(C)C3CC[C@@]21C (some centres undefined),> 100,> 100 µM,> 100 µM,> 100 µM,> 100,–,–,–,–,–,–,–,–,–,–,–,–,–
CC(C)=CCc1cc(O)cc2c1OC(C=C(C)C)C1=C2C(=O)C2=C(NCCS2(=O)=O)C1=O (centres undefined),–,5.34 µM,14 µM,4.86 µM,–,2.87 µM,5.23 µM,3.48 µM,11.9 µM,0.315 µM,0.634 µM,2.06 µM,> 16.7 µM,> 16.7 µM,4.42 µM,2.53 µM,3.32 µM,14.1 µM
COc1ccc2oc(-c3cccnc3)cc(=O)c2c1,> 100,> 100 µM,> 100 µM,> 100 µM,> 100,–,–,–,–,–,–,–,–,–,–,–,–,–
CCOC(=O)C(C)(C)Oc1ccc2c(C)c(-c3ccc(Cl)cc3)c(=O)oc2c1,> 100,80.6 µM,> 100 µM,> 100 µM,83.9,–,–,–,–,–,–,–,–,–,–,–,–,–
CC(=O)c1cc2c(o1)C(=O)c1ccccc1C2=O,–,0.5 µM and 0.472 µM,1.8 µM and 3.86 µM,0.328 µM and 0.376 µM,–,0.164 µM and 0.161 µM,0.312 µM and 0.304 µM,0.292 µM and 0.295 µM,0.771 µM and 0.806 µM,0.089 µM and 0.181 µM,0.238 µM and 0.33 µM,0.226 µM and 0.212 µM,0.341 µM and 0.329 µM,1.81 µM and 1.47 µM,0.731 µM and 0.917 µM,0.181 µM and 0.195 µM,1.33 µM and 1.6 µM,3.43 µM and 4.06 µM
O=C1CC(C[C@H](O)C2CCCCC2O)CC(=O)N1Cc1ccccc1 (some centres undefined),> 100,> 100 µM,–,> 100 µM,> 100,–,–,–,–,–,–,–,–,–,–,–,–,–
Cn1cnc([N+](=O)[O-])c1S(=O)(=O)Oc1ccccc1,–,60 µM,17.6 µM,34.9 µM,–,20.7 µM,45.4 µM,24.6 µM,> 80.5 µM,9.84 µM,31.9 µM,19.8 µM,21.7 µM,> 65.8 µM,4.69 µM,14.9 µM,2.3 µM,7.73 µM
CC1(C)OCCn2c1nc1c(N3CCOCC3)nc(-c3cnc(N)nc3)nc12,–,8.75 µM,12.5 µM,0.817 µM,–,0.183 µM,2.91 µM,0.135 µM,0.981 µM,0.27 µM,–,0.227 µM,0.508 µM,> 100 µM,2.14 µM,0.0563 µM,0.0325 µM,0.248 µM
O=C1[C@@H]2C3c4ccccc4C([C@@H]2C(=O)N1c1ccccc1)S3(=O)=O,> 100,> 100 µM,> 100 µM,> 100 µM,> 100,–,–,–,–,–,–,–,–,–,–,–,–,–
C=CC(=O)N1CCC(C2CCNc3c(C(N)=O)c(-c4ccc(Oc5ccccc5)cc4)nn32)CC1 (centres undefined),–,69.4 µM,39.5 µM,38.6 µM,–,12.9 µM,52.4 µM,20.6 µM,78.4 µM,13.4 µM,38 µM,11.1 µM,16.4 µM,61 µM,12.4 µM,8.31 µM,1.4 µM,28.4 µM
